{
  "source": "patent US20100028912A1",
  "about": "“IMAGING USING RADIOACTIVE MONOCATIONS IN COMBINATION WITH A RECEPTOR BINDING LIGAND THAT STIMULATES THE INFLUX OF CATIONS” (BRACCO IMAGING S.P.A., priority 2006, published 2010)",
  "origin": "cited, not measured here",
  "key": {"[1]": {"system": "Na+-K+ pump", "details": "guinea pig pancreatic acinar cells in vitro"}, "[2]": {"system": "guinea pig tracheal smooth muscle cells", "details": "cultured guinea pig tracheal smooth muscle cells"}, "[3]": {"system": "quiescent Swiss 3T3 cells", "details": "cells treated with Na+/K+ ATPase pump inhibitor"}, "[4]": {"system": "alpha(1)-adrenoceptors (AR)", "details": "30 μM; isolated perfused rat hearts and isolated cardiomyocytes"}, "[5]": {"system": "rat vascular smooth muscle cells", "details": "rat vascular smooth muscle cells in culture"}, "[6]": {"system": "Na+-K+-2Cl- cotransporter (NKCC)", "details": "acute cell exposure; rat L6 skeletal muscle cells"}},
  "data": [
    {"compound": "CSCC[C@H](NC(=O)[C@H](Cc1ccc(OS(=O)(=O)O)cc1)NC(=O)[C@@H](N)CC(=O)O)C(=O)NCC(=O)N[C@@H](Cc1c[nH]c2ccccc12)C(=O)N[C@@H](CCSC)C(=O)N[C@@H](CC(=O)O)C(=O)N[C@@H](Cc1ccccc1)C(N)=O", "note": "[CCK-8, cholecystokinin octapeptide]", "values": [
      {"measurement": "stimulation of ouabain-sensitive 86Rb+ uptake", "setting": "[1]", "result": "approximately 60%"}
    ]},
    {"compound": "C[N+](C)(C)CCOC(N)=O", "note": "[Carbachol]", "values": [
      {"measurement": "stimulation of ouabain-sensitive 86Rb+ uptake", "setting": "[1]", "result": "approximately 60%"}
    ]},
    {"compound": "NCCc1c[nH]c2ccc(O)cc12", "note": "[Serotonin, 5-hydroxytryptamine]", "values": [
      {"measurement": "uptake of 86Rb+", "setting": "[2]", "result": "increases"}
    ]},
    {"compound": "CCCC(=O)Nc1ncnc2c1ncn2[C@@H]1O[C@@H]2COP(=O)(O)O[C@H]2[C@H]1OC(=O)CCC", "note": "[dibutyryl cAMP]", "values": [
      {"measurement": "increase of Na+-K+ pump activity (as measured by ouabain-sensitive 86Rb+ uptake)", "setting": "[1]", "result": "approximately 40%"}
    ]},
    {"compound": "C[C@@H]1O[C@@H](O[C@H]2C[C@@H](O)[C@]3(CO)[C@H]4[C@H](O)C[C@]5(C)[C@@H](C6=CC(=O)OC6)CC[C@]5(O)[C@@H]4CC[C@]3(O)C2)[C@H](O)[C@H](O)[C@H]1O", "note": "[ouabain]", "values": [
      {"measurement": "effect on bombesin stimulation of 86Rb+ uptake", "setting": "[3]", "result": "virtually abolished"}
    ]},
    {"compound": "CNC[C@H](O)c1cccc(O)c1", "note": "[phenylephrine]", "values": [
      {"measurement": "86Rb+ influx into myocardial cells", "setting": "[4]", "result": "increased"}
    ]},
    {"compound": "Cn1c(=O)c2[nH]cnc2n(C)c1=O", "note": "[theophylline]", "values": [
      {"measurement": "increase of Na+-K+ pump activity (as measured by ouabain-sensitive 86Rb+ uptake)", "setting": "[1]", "result": "approximately 40%"}
    ]},
    {"compound": "Platelet-derived growth factor", "values": [
      {"measurement": "influx of 86Rb", "setting": "[5]", "result": "acute increase"}
    ]},
    {"compound": "Secretin", "values": [
      {"measurement": "increase of Na+-K+ pump activity (as measured by ouabain-sensitive 86Rb+ uptake)", "setting": "[1]", "result": "approximately 40%"}
    ]},
    {"compound": "insulin", "values": [
      {"measurement": "stimulation of NKCC-mediated 86Rb+ influx", "setting": "[6]", "result": "~1.6", "unit": "fold"}
    ]}
  ]
}
